Measurements reported in patent US11458138B2 (Novartis AG, priority 2017, dated 2022).

Assays:
[1] = system: YAP nuclear translocation in HaCaT cells; assay: YAP Translocation Assay (HaCaT Cells); assay type: cell-based, human; conditions: Homo sapiens, 24 hours
How it was run: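 HaCaT cells (20,000/well) in DMEM + 10% FBS were plated overnight at 37° C, then exposed to compound for 24 h at 37° C. Cells were fixed with PFA, permeabilized with 0.1% Triton/1.5% BSA and imaged by high-content imaging.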

rabbit corneal surface = assay: Rabbit model of limbal stem cell deficiency, transplantation of expanded LSCs; assay type: in vivo; conditions: LSCs expanded in medium comprising the compound, combined with GelMA, delivered via contact lens
From the text: FIG. 7B: Arrow is pointing to absence of keratin 19 staining. […] FIG. 7C: Arrow is pointing to absence of keratin-12 staining. […] FIG. 7D: Arrow is pointing to areas of positive keratin-19 staining.

[2] = system: Phospho-YAP (Ser127) in JHH-5 cells; assay: pYAP HTRF Assay (JHH-5 cells); assay type: cell-based; conditions: 2 hours
How it was run: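 Phospho-YAP read by HTRF (665 nm/620 nm ×10000) in lysates after overnight 18 h antibody incubation at room temperature. Compound treatment lasted 2 h at 37 °C, on JHH-5 cells plated 24 h earlier at 24000 per well in William's E medium with 10% FBS.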

[3] = system: Phospho-YAP (SER127) in HaCaT cells; assay: pYAP HTRF Assay (HaCaT Cells); assay type: cell-based, human; conditions: Homo sapiens, 2 hours
How it was run: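 Phospho-YAP (Ser127) was measured by HTRF (665 nm/620 nm ratio) in HaCaT cells. Cells were grown 48 hours at 37° C at 5500 cells/well, exposed to compound for 2 hours, and incubated with detection reagents for 20 hrs at room temperature.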

[4] = target: Human LATS2 kinase domain protein (Homo sapiens (Human), UniProt Q9NRM7); assay: LATS2 Biochemical Caliper Assay (Compound Examples 1-290); conditions: 400 micromolar ATP
Chain of Human LATS2 kinase domain protein (Q9NRM7 553-1088): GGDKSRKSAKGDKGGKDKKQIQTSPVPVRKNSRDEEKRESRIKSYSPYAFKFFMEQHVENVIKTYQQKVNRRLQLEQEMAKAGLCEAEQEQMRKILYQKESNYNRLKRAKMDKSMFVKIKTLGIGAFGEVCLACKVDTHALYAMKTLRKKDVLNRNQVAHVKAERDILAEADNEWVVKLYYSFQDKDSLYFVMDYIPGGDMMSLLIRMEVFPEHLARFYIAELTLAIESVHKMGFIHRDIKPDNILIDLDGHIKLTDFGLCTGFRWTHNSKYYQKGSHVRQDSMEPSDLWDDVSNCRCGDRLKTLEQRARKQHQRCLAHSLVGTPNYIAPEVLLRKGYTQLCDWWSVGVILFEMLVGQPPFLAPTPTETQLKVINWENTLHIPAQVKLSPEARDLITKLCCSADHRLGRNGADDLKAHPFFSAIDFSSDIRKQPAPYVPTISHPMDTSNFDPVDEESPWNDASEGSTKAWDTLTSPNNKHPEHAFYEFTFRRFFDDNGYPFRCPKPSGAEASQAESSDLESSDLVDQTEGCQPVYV
Chain of Human LATS2 kinase domain protein (Q7L9L4 whole entry partner, the tested form may be a part): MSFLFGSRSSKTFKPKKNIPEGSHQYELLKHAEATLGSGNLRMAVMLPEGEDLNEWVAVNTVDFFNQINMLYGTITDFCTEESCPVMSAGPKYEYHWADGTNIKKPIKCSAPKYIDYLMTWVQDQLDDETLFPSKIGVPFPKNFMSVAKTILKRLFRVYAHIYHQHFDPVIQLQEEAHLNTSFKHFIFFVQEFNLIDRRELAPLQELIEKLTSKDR
Procedure: Human LATS2 kinase domain protein was purchased from Carnabio (catalogue number 01-124), which harbors the catalytic domain of amino acids 553-1088, and was co-purified with human His-tagged MOBKL1A (NP_775-739). 5 microlitre of enzyme buffer, 100 nL of compounds and 5 microlitre of localising aid buffer were added into 384-well plates. […] The plates were incubated at 25° C. for 3 hours. 40 microlitre of stop buffer with 25 mM EDTA (NanoSyn) was added to each well to terminate the reaction. Localising aids and products were separated electrophoretically using the microfluidic-based Caliper Labchip 3000 Drug Discovery System (Caliper Life Sciences). Plates were read using blue laser excitation and green fluorescence detection and quantified by fluorescence intensity.

LATS1 = LATS1 (Homo sapiens (Human), UniProt O95835); assay: LATS1 biochemical assay (Table 1A, Compound Examples 1-290; method in the earlier part)
Chain of LATS1 (O95835 whole entry, looked up): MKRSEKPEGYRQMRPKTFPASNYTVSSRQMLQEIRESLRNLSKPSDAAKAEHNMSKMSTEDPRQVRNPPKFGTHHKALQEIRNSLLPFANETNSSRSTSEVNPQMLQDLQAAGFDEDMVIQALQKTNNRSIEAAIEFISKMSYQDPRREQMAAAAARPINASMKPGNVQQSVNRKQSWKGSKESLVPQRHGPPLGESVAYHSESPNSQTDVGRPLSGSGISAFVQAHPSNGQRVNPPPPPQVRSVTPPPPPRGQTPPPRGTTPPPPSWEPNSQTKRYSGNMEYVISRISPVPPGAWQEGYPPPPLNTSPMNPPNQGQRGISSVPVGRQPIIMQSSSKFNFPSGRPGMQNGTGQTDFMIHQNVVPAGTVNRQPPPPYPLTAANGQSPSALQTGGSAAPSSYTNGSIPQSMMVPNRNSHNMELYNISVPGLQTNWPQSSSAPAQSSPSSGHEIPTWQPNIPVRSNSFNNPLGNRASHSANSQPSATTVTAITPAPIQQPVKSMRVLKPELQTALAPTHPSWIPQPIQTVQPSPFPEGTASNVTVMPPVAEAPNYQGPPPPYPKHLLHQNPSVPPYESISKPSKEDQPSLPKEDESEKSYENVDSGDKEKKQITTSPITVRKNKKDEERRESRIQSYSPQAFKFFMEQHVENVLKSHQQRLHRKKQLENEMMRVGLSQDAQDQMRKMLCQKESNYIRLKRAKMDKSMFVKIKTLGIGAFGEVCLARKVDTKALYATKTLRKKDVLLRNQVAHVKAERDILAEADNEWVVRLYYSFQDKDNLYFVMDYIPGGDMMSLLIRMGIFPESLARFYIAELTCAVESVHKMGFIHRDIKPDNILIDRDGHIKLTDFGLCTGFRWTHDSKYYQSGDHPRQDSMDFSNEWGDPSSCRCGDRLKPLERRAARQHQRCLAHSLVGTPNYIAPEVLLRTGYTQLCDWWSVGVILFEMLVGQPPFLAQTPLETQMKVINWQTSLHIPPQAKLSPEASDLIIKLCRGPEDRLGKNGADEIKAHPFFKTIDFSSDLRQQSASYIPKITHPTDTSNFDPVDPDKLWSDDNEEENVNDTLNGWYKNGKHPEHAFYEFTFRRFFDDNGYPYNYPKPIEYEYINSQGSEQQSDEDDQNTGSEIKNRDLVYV
Chain of LATS1 (Q7L9L4 whole entry partner, looked up): as the sequence (Q7L9L4 whole entry partner, the tested form may be a part) above

limbal stem cells (LSCs) = assay: Differentiation of expanded LSCs into corneal epithelium cells (p63alpha / keratin 12); assay type: cell-based, human; conditions: transferred to conditions that enable differentiation
From the text: Shown are views where the transition from the p63alpha-positive cell identity to the keratin-12 identity are occurring.
These characteristics can be observed by immunohistochemistry or FACS.

CTGF mRNA in liver = assay: In vivo treatment of mice: quantitative RT-PCR, CTGF; conditions: mouse liver, single oral dose 30 mg/kg, 2 h post-dose, relative to vehicle, mean+/-SEM
Procedure: (§1) All animal studies were carried out in accordance with federal, state, local and institutional guidelines governing the use of laboratory animals in research. Male C57BL/6J mice (age 8-10 weeks) were purchased from Jackson Labs (Bar Harbor, Me.). Example 46 was formulated for oral dosing at 3 mg/ml, and Example 261 at 1 mg/ml, in a suspension of methylcellulose:Tween80:Water (0.5:0.5:99). Single oral dose of either compound was at 10 mL/kg body weight. Blood and liver tissue were collected under deep anesthesia (isoflurane) at either 2 h post-dose (for mRNA analysis) or 24 h post-dose (for immunohistochemistry).
(§2) Total liver RNA was isolated from tissue after storage in RNAlater reagent (Qiagen), using a TRIzol method according to the manufacturer's instructions (Life Technologies). Relative mRNA abundance was measured by quantitative RT-PCR using TaqMan gene expression assays and reagents according to standard protocols (Applied Biosystems). Mouse probes for YAP target genes were CTGF (Mm01192933_g1) and Cyr61 (Mm00487498_m1). […] Relative changes in mRNA were calculated by the ΔΔCt method. Changes in gene expression with compound treatment are expressed as fold-change relative to the vehicle group.

Cyr61 mRNA in liver = assay: In vivo treatment of mice: quantitative RT-PCR, Cyr61; conditions: mouse liver, single oral dose 30 mg/kg, 2 h post-dose, relative to vehicle, mean+/-SEM
Procedure: as §1, §2

[5] = system: Ki67-positive hepatocytes; assay: In vivo treatment of mice: immunohistochemistry (IHC) for Ki67 in liver; conditions: mouse liver, single oral dose 30 mg/kg, 24 h post-dose, relative to vehicle, mean+/-SEM
Procedure: as §1
Liver tissue was fixed in 10% neutral buffered formalin for 24-48 h. Processing and embedding in paraffin was by standard procedures. Sections were cut at 5 microns thickness and stained using a Ventana automated system. Primary antibody for mouse Ki67 was a rabbit IgG (Bethyl Labs). Ki67-positive hepatocytes were quantified by image analysis using the HALO platform. At least 3 sections per animal were analyzed, from the middle of the medial lobe.

[6] = system: Phospho-YAP (SER127) in liver tissue; assay: In vivo treatment of mice: Phospho-YAP (pYAP) HTRF in liver tissue; conditions: mouse liver, single oral dose 30 mg/kg
Procedure: as §1
Frozen liver tissue was transferred into a Lysing Matrix tube (MP, cat #6913-500) with a 1:50 solution of Protease inhibitor (Sigma-Aldrich, cat #P8340) in Phosphosafe extraction buffer (Novagen, cat #71296-3) and homogenized using the FastPrep-24 (MP biomedicals). […] The protein concentration was measured using the BCA Protein Assay Kit (Pierce cat. 23227) following the manufacturer's protocol. […] The same input quantity was used for each sample, based on total protein content (30-60 ug per sample per well). […] Plates were read on an EnVision (PerkinElmer) with emission wavelengths of 665 nm & 620 nm. The HTRF signal ratio was calculated as Signal(665 nm)/Signal(620 nm))×10000 as specified in the manufacturer's protocol. […]

[7] = system: hepatic progenitor cells (HPC); assay: Mouse Hepatic Progenitor Cell Proliferation Assay; assay type: cell-based; conditions: 96 h, mean number of nuclei per organoid, 4 days
Procedure: The progenitor cells were isolated from C57Bl/6 wild type mice and expanded as described (Lu, W. Y. et al., Nat. Cell Biol. 17, 971-983 (2015)). Cells are stocked in liquid nitrogen, thawed on need and tested using the following protocol: HPC are harvested from their collagen I coated culture vessel (Corning; cat. Number 354487), counted and assessed for viability using a CEDEX cell counter (Roche). After centrifugation, 12 million cells are re-suspended in 2 ml of William's E Medium (Life Technologies; cat. Number 22551089) supplemented with 10% Fetal Bovine Serum (Amimed; cat. Number 2-01F10-I); 1% Penicillin/Streptomycin (Sigma; cat. Number 15140-122); 17.6 mM of NaHCO3 (Sigma; cat. Number S8761); 20 mM HEPES (Gibco; cat. Number H3375); 10 mM Nicotinamide (Sigma; cat. Number N0636-100); 14 mM glucose (Sigma; cat. Number G7021); 1 mM Sodium Pyruvate (Sigma; cat. Number TMS-005); Insulin Transferrin Selenium (ITS) diluted 100 times from stock solution (Sigma; cat. Number 13148); 100 nM Dexamethasone (Sigma; cat. Number D4902); 0.2 mM ascorbic acid (Sigma; cat. Number A7506-100G); 10 ng/ml recombinant human IL-6 (Preprotech; cat. Number 200-06); 10 ng/ml murine HGF (Preprotech; cat. Number 315-23; Lot. 0711S527); 10 ng/ml murine EGF (Preprotech; cat. Number 315-09; Lot. 0217179-1). Six milliliters of Matrigel (Corning; cat. Number 354277; Lot: 5187006) are added to the cell/media solution, thus the final cell concentration is 1.5 million HPC per milliliter, in 25% culture medium and 75% Matrigel. Five microliter (p1) of the cell/Matrigel suspension are transferred in each well of the clear bottom 96 well assay plate (Corning; cat. Number 356649) using the Star dispenser (Hamilton). […]
Plates are imaged with the CV7000 imager (Yokogawa) at a 10 fold magnification using the bright field lamp (lamp power: 10%; exposure time: 20 ms) and the 405 nanometer laser (laser power: 100%; exposure time 200 ms). Four different images per well were acquired and analyzed with the Yokogawa image analysis software (YAS). […]

[8] = target: Human LATS1 kinase domain protein (Homo sapiens (Human), UniProt O95835); assay: LATS1 Biochemical Caliper Assay (Compound Examples 291-335); conditions: Caliper EZ Reader
Chain of Human LATS1 kinase domain protein (O95835 whole entry, looked up, the tested form may be a part): as the sequence (O95835 whole entry, looked up) above
Chain of Human LATS1 kinase domain protein (Q7L9L4 whole entry partner, looked up, the tested form may be a part): as the sequence (Q7L9L4 whole entry partner, the tested form may be a part) above
Procedure: The LATS1 biochemical Caliper assay was performed as following.
Human LATS1 kinase domain protein was purchased from Carnabio (catalogue number 01-123; lot 15CBS-0098D). Human LATS1, catalytic domain [589-1130(end) amino acids of accession number NP_004681.1] was co-expressed as N-terminal GST-fusion protein (90 kDa) with human His-tagged MOBKL1A [1-216(end) amino acids of accession number NP_775739.1] using baculovirus expression system. GST-LATS1 was purified by using glutathione sepharose chromatography. The substrate (Fluo-SGKtide; Peptide for LATS1; lot BS-41067) has the following sequence: 5-Fluo-Nva-[…]-amide (SEQ ID NO: 27) x TFA and was purchased from Biosyntan.
The reaction is performed in reaction buffer containing 50 mM Hepes pH 7,5; 0.02% Tween20; 0.02% BSA; 1 mM DTT; 10 uM Na3VO4 and 10 mM beta-Glycerolphosphat and fresh added 1 mM MgCl2 and qsp H2O.
The substrate solution (2× conc.) in Reaction Buffer contains 300 μM ATP and 4 μM Fluo-SGKtide.
The kinase solution (2× conc.) in Reaction Buffer contains 20 nM LATS1 kinase. 4.5 μL of 2× conc. Kinase solution, 50 nL of 1.8 mM compounds and 4.5 μL of substrate solution were added into 384-well plates black small volume from Greiner and incubated at 32° C. for 1 hour. 15 μL of stop buffer containing 100 mM Hepes pH 7,5; 5% DMSO; 0.1% Coating reagent; 10 mM EDTA and 0.02% Brij35 and qsp H2O to each well to terminate the reaction.
Substrates and products were electrophoretically separated using the microfluidic-based Caliper EZ Reader System (Caliper Life Sciences) using a 12 sipper chip (cat 760404). The separation takes place in Coating Buffer (idem Stop buffer) and containing 0.1% Coating reagent CR3 and 0.5% coating reagent CR8 (Perkin Elmer).
Plates were read using a LED with an excitation at 488 nm and a detection at 520 nm to 5 quantify the fluorescence intensity.

| IC50 [2] [nM] | IC50 (LATS1) [nM] | IC50 [8] [nM] | SMILES | EC50 [1] [nM] | conjunctivalization (keratin-19) in transplanted eye (rabbit corneal surface) | corneal epithelium regeneration (keratin-12) in transplanted eye (rabbit corneal surface) | IC50 [3] [nM] | IC50 [4] [nM] | differentiation of expanded LSCs into corneal epithelium cells (keratin 12) (limbal stem cells (LSCs)) | CTGF mRNA (fold-change) (CTGF mRNA in liver) | Cyr61 mRNA (fold-change) (Cyr61 mRNA in liver) | Ki67 IHC (fold-change) [5] | pYAP (% of control) [6] | EC50 [7] [nM] |
| --- | --- | --- | --- | --- | --- | --- | --- | --- | --- | --- | --- | --- | --- | --- |
|  | > 2500 |  | c1cc(-c2nc(NCCCc3nnn[nH]3)c3ccncc3n2)ccn1 [Example 46, 2-(pyridin-4-yl)-N-[3-(1H-1,2,3,4-tetrazol-5-yl)propyl]pyrido[3,4-d]pyrimidin-4-amine] | > 20000 |  |  |  |  |  | 2.1 (+/−0.4) fold-change | 3.5 (+/−0.5) fold-change | 3.3 (+/−0.2) fold-change | 64 % of control |  |
| 600 | 1 |  | CC(C)(Nc1nc(-c2ccncc2)nc2cnccc12)C(F)(F)F [Example 58, 2-(pyridin-4-yl)-N-(1,1,1-trifluoro-2-methylpropan-2-yl)pyrido[3,4-d]pyrimidin-4-amine] | 302 |  |  | 185 | 170 |  |  |  |  |  | 840 |
| > 10000 |  | 10.2 | CC1CNCCN1c1cc(-c2ccncc2)nc2cnccc12 (centres unmarked) [Example 303, 4-(2-methylpiperazin-1-yl)-2-(pyridin-4-yl)-1,7-naphthyridine] |  |  |  |  |  |  |  |  |  |  | > 20000 |

| SMILES | IC50 [2] [nM] | IC50 (LATS1) [nM] | IC50 [8] [nM] | EC50 [1] [nM] | conjunctivalization (keratin-19) in transplanted eye (rabbit corneal surface) | corneal epithelium regeneration (keratin-12) in transplanted eye (rabbit corneal surface) | IC50 [3] [nM] | IC50 [4] [nM] | differentiation of expanded LSCs into corneal epithelium cells (keratin 12) (limbal stem cells (LSCs)) | CTGF mRNA (fold-change) (CTGF mRNA in liver) | Cyr61 mRNA (fold-change) (Cyr61 mRNA in liver) | Ki67 IHC (fold-change) [5] | pYAP (% of control) [6] | EC50 [7] [nM] |
| --- | --- | --- | --- | --- | --- | --- | --- | --- | --- | --- | --- | --- | --- | --- |
| CC(C)(O)COCC(C)(C)Nc1nc(-c2ccncc2)nc2cnccc12 [Example 12, 2-methyl-1-(2-methyl-2-{[2-(pyridin-4-yl)pyrido[3,4-d]pyrimidin-4-yl]amino}propoxy)propan-2-ol] | 2900 | 4 |  | 1750 | prevented conjunctivalization by keratin-19-positive conjunctival cells | lead to regeneration of a keratin-12-positive corneal epithelium | 1150 | 15 | can differentiate into corneal epithelium cells |  |  |  |  |  |
